The values that follow come from paper PMC7068650, “In silico screening of GMQ-like compounds reveals guanabenz and sephin1 as new allosteric modulators of acid-sensing ion channel 3” (Biochemical Pharmacology, 2020).

Each structure is given as a SMILES string.

What all share (type): cell-based
For assay [1], the target named is T1, acid-sensing ion channel 3 (rASIC3) (Rattus norvegicus, UniProt O35240).
T1 construct: gene Asic3
T1 sequence (O35240 1-533): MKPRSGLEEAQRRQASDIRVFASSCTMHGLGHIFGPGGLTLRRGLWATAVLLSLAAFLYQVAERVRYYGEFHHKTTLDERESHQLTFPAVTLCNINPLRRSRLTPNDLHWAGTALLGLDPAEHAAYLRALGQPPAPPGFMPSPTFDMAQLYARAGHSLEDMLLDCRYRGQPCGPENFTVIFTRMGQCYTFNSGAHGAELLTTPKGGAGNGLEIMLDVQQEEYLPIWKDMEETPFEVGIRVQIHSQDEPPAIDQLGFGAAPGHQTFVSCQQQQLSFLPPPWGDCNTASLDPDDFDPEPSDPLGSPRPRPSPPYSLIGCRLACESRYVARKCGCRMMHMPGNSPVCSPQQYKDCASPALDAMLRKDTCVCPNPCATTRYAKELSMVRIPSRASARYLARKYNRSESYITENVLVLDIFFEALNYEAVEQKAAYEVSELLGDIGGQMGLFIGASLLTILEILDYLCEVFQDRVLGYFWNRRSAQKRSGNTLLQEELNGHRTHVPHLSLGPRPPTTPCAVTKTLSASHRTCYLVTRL
As to the kind of experiment: whole-cell patch clamp, rASIC3-transfected CHO cells, activation at pH […] (estimated EC50; also potentiates pH […] and pH […] responses).

The target in assay [2] is T1, acid-sensing ion channel 3 (rASIC3). As to the kind of experiment: whole-cell patch clamp, rASIC3-transfected CHO cells, activation at pH […] (reference agonist; estimated EC50).
The target is the same in assay [3]. Description: whole-cell patch clamp, rASIC3-transfected CHO cells, potentiation of the pH […] response at […] (no effect on pH […] response).

A word on the EC50: it is the concentration needed to bring the measured effect to its halfway point. `N=C(N)N/N=C/c1c(Cl)cccc1Cl` [GBZ, guanabenz]: the EC50 in assay [1] is roughly 67.5 µM.

On to `Cc1nc(NC(=N)N)nc2ccccc12` [GMQ, 2-guanidine-4-methylquinazoline], for which the EC50 in assay [2] was roughly 680 µM.

`Clc1ccc2nsnc2c1NC1=NCCN1` [TIZ, tizanidine]: the “whole-cell patch clamp, rASIC3-transfected CHO cells, potentiation of the pH 7 r” value in assay [3] is “TIZ and GBZ produced a similar effect, inducing an increase in the peak and sustained currents”.
